For this assay, the target named is T1, human recombinant GPR65 (Homo sapiens, UniProt Q8IYL9).
T1 construct: host or cells: 1321N1 human astrocytoma cells (1321N1-hrGPR65)
The assay can be described thus: Human GPR65 cAMP HTRF antagonist assay. The class given is cell-based. As to conditions: 1321N1-hrGPR65 cells stimulated at assay pH 7.2; suppression of cAMP rise; read-out: hGPR65 IC50. The method, then:
Human GPR65 Cyclic Adenosine Monophosphate (cAMP) Homogeneous Time Resolved Fluorescence (HTRF) Antagonist Assay Procedure
IC50 data was obtained by the following procedure:
1321N1 human astrocytoma cells stably expressing human recombinant GPR65 (1321N1-hrGPR65 cells, EuroscreenFast) were cultured according to the vendor's instructions.
Compounds were tested for their ability to antagonise GPR65, through measuring the concentration of cytoplasmic cAMP following treatment of the cells at a pH of 7.2 to activate GPR65 signalling and addition of the compound to be tested. The extent to which the expected rise in cAMP concentration upon GPR65 activation was suppressed by the added compound is indicative of its potency. The assay was carried out according to EuroscreenFast assay methodology as follows.
On the day of the assay, test compounds were added to 384-well, low volume, white microtiter plates by acoustic dispensing. KRH buffer (5 mM KCl, 1.25 mM MgSO4, 124 mM NaCl, 25 mM HEPES, 13.3 mM Glucose, 1.25 mM KH2PO4 and 1.45 mM CaCl2) was adjusted to pH 6.5, pH 7.6 and pH 8.4 by adding NaOH. 1321N1-hGPR65 cells were rapidly thawed and diluted in KRH, pH 7.6 prior to centrifugation at 300×g for 5 min and resuspension in assay buffer (KRH, pH 7.6, supplemented with 1 mM 3-isobutyl-1-methylxanthine (IBMX) and 200 μM ethylenediaminetetraacetic acid (EDTA)). Cells were added to assay plates at a density of 2,000 cells per well in a volume of 5 μl. Assay plates were briefly centrifuged at 100×g and then incubated at room temperature for 30 min. Cells were stimulated by the addition of 5 μL KRH, pH 6.5, to achieve an assay pH of 7.2, while control wells received 5 μl KRH, pH 8.4 to achieve an assay pH of 7.9. Assay plates were briefly centrifuged at 100×g and then incubated at room temperature for 30 min.
Accumulation of cAMP was detected by cAMP HTRF kit (Cisbio). d2-labeled cAMP and cryptate-labeled anti-cAMP antibody in Lysis and Detection Buffer (Cisbio) were added to assay plates, and the plates were incubated at room temperature for 1 h. HTRF measurements were performed using a Pherastar FSX instrument. Acceptor and donor emission signals were measured at 665 nm and 620 nm, respectively, and HTRF ratios were calculated as signal665 nm/signal620 nm×10^4. Data were normalised to high and low control values and fitted with 4-parameter logistic regression to determine hGPR65 IC50 values for the test compounds, which are shown in Table 1.
Background: Time-resolved FRET reads energy transfer from a long-lived donor to a nearby acceptor.

T1 sequence (Q8IYL9 whole entry): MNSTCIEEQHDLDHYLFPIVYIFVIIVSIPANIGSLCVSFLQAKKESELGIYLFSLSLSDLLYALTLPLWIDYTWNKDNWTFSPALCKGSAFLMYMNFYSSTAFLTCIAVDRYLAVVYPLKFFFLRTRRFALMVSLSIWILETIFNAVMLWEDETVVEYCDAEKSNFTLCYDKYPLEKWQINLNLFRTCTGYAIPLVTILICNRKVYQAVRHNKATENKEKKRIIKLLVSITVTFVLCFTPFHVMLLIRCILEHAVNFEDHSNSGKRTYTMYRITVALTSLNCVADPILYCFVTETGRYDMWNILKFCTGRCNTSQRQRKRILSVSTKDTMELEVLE

Turning to `O=C(Nc1ccc(C(F)(F)F)c(Cl)c1)N1CCc2cc(C(F)(F)F)ccc2C1` [Compound 72, N-(3-Chloro-4-(trifluoromethyl)phenyl)-6-(trifluoromethyl)-3,4-dihydroisoquinoline-2(1H)-carboxamide], the IC50 is > 5 µM. Turning to `O=C(Nc1ccc(C(F)(F)F)c(Cl)c1)N1CCc2cc(=O)[nH]cc2C1` [Compound 74, N-(3-Chloro-4-(trifluoromethyl)phenyl)-6-oxo-3,4,6,7-tetrahydro-2,7-naphthyridine-2(1H)-carboxamide], the half-maximal inhibitory concentration (IC50) is < 0.5 µM.

In the case of `O=C(Nc1ccc(Cl)c(Cl)c1)N1CCc2cc(=O)[nH]cc2C1` [Compound 76, N-(3,4-Dichlorophenyl)-6-oxo-3,4,6,7-tetrahydro-2,7-naphthyridine-2(1H)-carboxamide], the half-inhibitory concentration (IC50) was < 0.5 µM. The value for `O=C(Nc1ccc(Cl)c(C(F)(F)F)c1)N1CCc2[nH]c(=O)ccc2C1` [Compound 77, N-(4-Chloro-3-(trifluoromethyl)phenyl)-2-oxo-1,5,7,8-tetrahydro-1,6-naphthyridine-6(2H)-carboxamide] was > 5 µM; that for `O=C(Nc1ccc(Cl)c(Cl)c1)N1CCc2[nH]c(=O)ccc2C1` [Compound 78, N-(3,4-Dichlorophenyl)-2-oxo-1,5,7,8-tetrahydro-1,6-naphthyridine-6(2H)-carboxamide] was > 5 µM. For `O=C(Nc1ccc(C(F)(F)F)c(Cl)c1)N1CCc2c[n+]([O-])ccc2C1` [Compound 79, 6-((3-Chloro-4-(trifluoromethyl)phenyl)carbamoyl)-5,6,7,8-tetrahydro-2,6-naphthyridine 2-oxide], the 50% inhibitory concentration (IC50) was < 0.5 µM. In the case of `O=C(Nc1ccc(Cl)c(Cl)c1)N1CCc2oncc2C1` [Compound 80, N-(3,4-Dichlorophenyl)-6,7-dihydroisoxazolo[4,5-c]pyridine-5(4H)-carboxamide], the IC50 was in the range of 0.5 to 5 µM.

In the case of `O=C(Nc1ccc(Cl)c(Cl)c1)N1CCc2ccccc2C1` [Compound 81, N-(3,4-Dichlorophenyl)-3,4-dihydroisoquinoline-2(1H)-carboxamide], the 50% inhibitory concentration (IC50) lay in the range of 0.5 to 5 µM. The value for `Nc1cc2c(cn1)CCN(C(=O)Nc1ccc(Cl)c(Cl)c1)C2` [Compound 82, 7-Amino-N-(3,4-dichlorophenyl)-3,4-dihydro-2,6-naphthyridine-2(1H)-carboxamide] was < 0.5 µM. Consider `Nc1cc2c(cn1)CCN(C(=O)Nc1ccc(C(F)(F)F)c(Cl)c1)C2` [Compound 83, 7-Amino-N-(3-chloro-4-(trifluoromethyl)phenyl)-3,4-dihydro-2,6-naphthyridine-2(1H)-carboxamide], for which the half-maximal inhibitory concentration (IC50) is < 0.5 µM. For the molecule `Nc1cc2c(cn1)CN(C(=O)Nc1ccc(Cl)c(Cl)c1)CC2` [Compound 84, 6-Amino-N-(3,4-dichlorophenyl)-3,4-dihydro-2,7-naphthyridine-2(1H)-carboxamide], the concentration for half-maximal inhibition (IC50) was > 5 µM. For `O=C(Nc1ccc(Cl)c(Cl)c1)N1CCc2cc(F)ncc2C1` [Compound 85, N-(3,4-dichlorophenyl)-6-fluoro-3,4-dihydro-2,7-naphthyridine-2(1H)-carboxamide], the IC50 was < 0.5 µM.

For `O=C(Nc1ccc(Cl)c(Cl)c1)N1CCc2cnc(F)cc2C1` [Compound 86, N-(3,4-Dichlorophenyl)-7-fluoro-3,4-dihydro-2,6-naphthyridine-2(1H)-carboxamide], the IC50 was in the range of 0.5 to 5 µM. Consider `O=C(Nc1ccc(C(F)(F)F)c(Cl)c1)N1CCc2cnc(F)cc2C1` [Compound 87, N-(3-Chloro-4-(trifluoromethyl)phenyl)-7-fluoro-3,4-dihydro-2,6-naphthyridine-2(1H)-carboxamide], for which the 50% inhibitory concentration (IC50) lay within 0.5 to 5 µM. The value for `O=C(Nc1ccc(Cl)c(Cl)c1)N1CCc2[nH]c(=O)ncc2C1` [Compound 88, N-(3,4-Dichlorophenyl)-2-oxo-1,5,7,8-tetrahydropyrido[4,3-d]pyrimidine-6(2H)-carboxamide] was 0.5 to 5 µM.

`O=C(Nc1ccc(Cl)c(C(F)(F)F)c1)N1CCc2cc(=O)[nH]cc2C1` [Compound 89, N-(4-chloro-3-(trifluoromethyl)phenyl)-6-oxo-3,4,6,7-tetrahydro-2,7-naphthyridine-2(1H)-carboxamide]: the 50% inhibitory concentration (IC50) lay in the range of 0.5 to 5 µM. In the case of `O=C(Nc1ccc(C(F)(F)F)c(Cl)c1)N1CCc2cnc(Cl)cc2C1` [Compound 90, 7-Chloro-N-(3-chloro-4-(trifluoromethyl)phenyl)-3,4-dihydro-2,6-naphthyridine-2(1H)-carboxamide], the IC50 lay within 0.5 to 5 µM.

`O=C(Nc1ccc(C(F)(F)F)c(Cl)c1)N1CCc2cc(Cl)ncc2C1` [Compound 91, 6-Chloro-N-(3-chloro-4-(trifluoromethyl)phenyl)-3,4-dihydro-2,7-naphthyridine-2(1H)-carboxamide]: the IC50 fell in the range of 0.5 to 5 µM. With `Cn1cc2c(cc1=O)CCN(C(=O)Nc1ccc(Cl)c(Cl)c1)C2` [Compound 92, N-(3,4-Dichlorophenyl)-7-methyl-6-oxo-3,4,6,7-tetrahydro-2,7-naphthyridine-2(1H)-carboxamide] the figure was > 5 µM. For the molecule `CC1c2ccc(F)cc2CCN1C(=O)Nc1ccc(Cl)c(Cl)c1` (centres unmarked) [Compound 93, N-(3,4-Dichlorophenyl)-6-fluoro-1-methyl-3,4-dihydroisoquinoline-2(1H)-carboxamide], the half-inhibitory concentration (IC50) was < 0.5 µM.

With `O=C(Nc1ccc(C(F)(F)F)c(Cl)c1)N1CCc2cc[n+]([O-])cc2C1` [Compound 94, 7-((3-Chloro-4-(trifluoromethyl)phenyl)carbamoyl)-5,6,7,8-tetrahydro-2,7-naphthyridine 2-oxide], the half-inhibitory concentration (IC50) is > 5 µM. In the case of `O=C(Nc1ccc(Cl)c(Cl)c1)N1CCc2cc(O)ccc2C1` [Compound 95, N-(3,4-Dichlorophenyl)-6-hydroxy-3,4-dihydroisoquinoline-2(1H)-carboxamide], the IC50 is > 5 µM. Turning to `O=C(Nc1ccc(Cl)c(Cl)c1)N1CCc2ccc(O)cc2C1` [Compound 96, N-(3,4-Dichlorophenyl)-7-hydroxy-3,4-dihydroisoquinoline-2(1H)-carboxamide], the IC50 is 0.5 to 5 µM. `O=C(Nc1ccc(C(F)(F)F)c(Cl)c1)N1CCc2ccnc(Cl)c2C1` [Compound 97, 8-Chloro-N-(3-chloro-4-(trifluoromethyl)phenyl)-3,4-dihydro-2,7-naphthyridine-2(1H)-carboxamide]: the IC50 was > 5 µM.

On to `O=C(Nc1ccc(Cl)c(Cl)c1)N1CCc2nocc2C1` [Compound 98, N-(3,4-Dichlorophenyl)-6,7-dihydroisoxazolo[4,3-c]pyridine-5(4H)-carboxamide], for which the IC50 lay in the range of 0.5 to 5 µM. `O=C(Nc1ccc(Cl)c(Cl)c1)N1CCc2c[nH]c(=O)cc2C1` [Compound 99, N-(3,4-Dichlorophenyl)-7-oxo-3,4,6,7-tetrahydro-2,6-naphthyridine-2(1H)-carboxamide]: the IC50 is > 5 µM.

In the case of `O=C(Nc1ccc(C(F)(F)F)c(Cl)c1)N1CCc2c[nH]c(=O)cc2C1` [Compound 100, N-(3-Chloro-4-(trifluoromethyl)phenyl)-7-oxo-3,4,6,7-tetrahydro-2,6-naphthyridine-2(1H)-carboxamide], the concentration for half-maximal inhibition (IC50) was > 5 µM. Consider `O=C(Nc1ccc(Cl)c(Cl)c1)N1CCc2nonc2C1` [Compound 101, N-(3,4-Dichlorophenyl)-6,7-dihydro-[1,2,5]oxadiazolo[3,4-c]pyridine-5(4H)-carboxamide], for which the IC50 was 0.5 to 5 µM. The value for `N#Cc1cc2c(cn1)CN(C(=O)Nc1ccc(Cl)c(Cl)c1)CC2` [Compound 102, 6-Cyano-N-(3,4-dichlorophenyl)-3,4-dihydro-2,7-naphthyridine-2(1H)-carboxamide] was 0.5 to 5 µM; that for `N#Cc1cc2c(cn1)CCN(C(=O)Nc1ccc(Cl)c(Cl)c1)C2` [Compound 103, 7-Cyano-N-(3,4-dichlorophenyl)-3,4-dihydro-2,6-naphthyridine-2(1H)-carboxamide] was 0.5 to 5 µM; that for `O=C(Nc1ccc(C(F)(F)F)c(Cl)c1)N1CCc2cc(F)ncc2C1` [Compound 104, N-(3-chloro-4-(trifluoromethyl)phenyl)-6-fluoro-3,4-dihydro-2,7-naphthyridine-2(1H)-carboxamide] was < 0.5 µM. As for `COc1cc2c(cn1)CCN(C(=O)Nc1ccc(Cl)c(Cl)c1)C2` [Compound 105, N-(3,4-Dichlorophenyl)-7-methoxy-3,4-dihydro-2,6-naphthyridine-2(1H)-carboxamide], the IC50 was > 5 µM.

A word on the IC50: it is the point on the concentration scale where inhibition reaches its midpoint.

The record behind these values is patent US20230174530A1, “N-(PHENYLAMINOCARBONYL) TETRAHYDRO-ISOQUINOLINES AND RELATED COMPOUNDS AS MODULATORS OF GPR65” (PATHIOS THERAPEUTICS LIMITED, priority 2020, published 2023).
